Values joined by “and” are separate entries in the source; they are usually repeats but may differ in a detail not shown here. Equal values may be shown once.
What was measured:
Labrador Retrievers [1] = experiment: Activity by Actical monitors, long (endurance) runs, Example 1; type: in vivo, dog; details: Ex.1, 250 mg/d; for Activity long runs, Least Sq Mean: average of 13 weekly long runs, mixed model
Description: Each test dog wore an Actical activity monitor from Philips Respironics on a collar for the short higher intensity runs and also wore an Actical activity monitor for the weekly longer endurance runs. The activity data was downloaded into spread sheets along with each dogs identity. Twenty four hours after each long run during the 13 wk running program each of the dogs were scored by kennel staff for soreness or any type of lameness The exercise program was decreased in a tapering program during wk 11 and 12 to allow the dogs to rest for the final long run completed on wk 13. Pre-run serum samples from each test dog was taken 24 hr before the last endurance run. The heart rate and basal body temperature was determined for each test dog prior to the last long endurance run. The distance and number of sprints affiliated with the short runs (marks) were decreased during wk 11 back to 1200 total yd/d or 2400 yd/wk and decreased again on wk 12 to 600 yd/d or a total of 1200 yd/wk to provide rest for the final long run on wk 13. The weekly endurance run was 5 miles in the beginning, increased by ½ mile per wk and was increased to a distance of 10 miles on the 10th week. The dogs ran only a 5 mile endurance run on wk 11 and only a 2 mile endurance run on wk 12 in order to rest for the final long run during the 13th wk. The endurance (long) runs for the 40 dogs were carried out on the 5th and 6th day of each wk for both treatments. Half of the dogs were run on Friday (5th d) and half of the dogs were run on the Saturday (6th d). The exercise regimen was finalized during the 13th week of the study by resting the dogs for 3 days and then running half of the dogs from each group for a 15 mile endurance run on Monday and the remaining 20 dogs were run the 15 mile endurance run on Tuesday. The longer endurance type runs were slightly slower to enhance fat oxidation and represent an exercise intensity equivalent to 50%-65% VO2 max. Performance and Recovery Time: An Actical monitor (Philips Respironics) was worn around the neck of each dog on a collar and utilized to evaluate the amount of movement (measured total movements and intensity) for each dog for the purpose of evaluating equal work between treatments and also to evaluate the individual work intensity while completing the daily retrieves. Each dog wore the Actical monitor for each long run and wore the Actical monitor for the final 15 mile run. The Actical monitor data was downloaded to a computer for evaluation. Statistical Methods: GraphPad Prism 6.0 was used to compare means between groups for run time, food intake, body weight, and changes in blood chemistry using an unpaired t-test. Results were considered significant if a p-value of 0.05 was obtained. JMP 10.0.2 was used to create a mixed model for long runs, short runs, body composition, and blood chemistry.

Labrador Retrievers [2] = experiment: Time of final 15 mile run, Example 2 part one (14 week crossover study); type: in vivo, dog; details: Ex.2 part one, 250 mg/d, 15 mile run at end of 14 week study, mean ± SEM
Description: Part One: For part one of the study, fifty-six Labrador Retrievers were divided into two equal groups of 28 (14 males, 14 females) based on gender, BW, genetics, age, excitement level, frame size, and lean body mass. The dogs were out of a minimum of 10 different bitches and at least as many sires. Prior to the start of the study, the dogs were tested for lean mass, muscle damage, and antioxidant status as described in Example 1. In addition to the low carnitine basal diet, twenty-eight of the Labs received 250 mg/day of L-carnitine (batch D23013) and 3.75 g/d of sugar, while twenty-eight of the Labs received 4 g/d of sugar. Both the L-carnitine and control performance dogs were put through a weekly running program consisting of two evenly distributed endurance runs. Groups ranging between 6 and 10 dogs were run together, including both treatments in each group. The endurance runs increased incrementally by 0.5 miles per week (5 miles/session increasing to 10 miles per session over an 11 week period). The dogs were allowed a 1 day rest between runs and a 3 day rest before a scheduled exercise distance increase. The dogs were put through maintenance runs of 5 miles twice in the 12th week and then 2 miles twice in the 13th week. All dogs had at least 4 days of rest prior to the final 15 miles run in the 14th week. Each performance dog wore the Actical activity monitor and GPS tracking collar during the last 15 mile endurance run. The final run was conducted in a manner analogous to that of Example 1. All activity was accurately and precisely calculated using the GPS tracking monitors. Immediately following the 15 mile endurance run, each dog was placed in a kennel and evaluated for recovery time in body temperature (every 15 minutes for 2 hours) and heart rate (every 2 minutes for up to 20 minutes until basal beats per minute (BPM) was reached). Body temperature and heart rate were measured as described in Example 1.

## C[N+](C)(C)C[C@H](O)CC(=O)[O-] [L-carnitine]
Labrador Retrievers [1]; Week 1, both sexes
  Activity long runs, APM/lb Mean: 1535 Movements/Mile/LB BW
Labrador Retrievers [1]; Week 1, females
  Activity long runs, APM/lb Mean: 1825 Movements/Mile/LB BW
Labrador Retrievers [1]; Week 1, males
  Activity long runs, APM/lb Mean: 1298 Movements/Mile/LB BW
Labrador Retrievers [1]; Week 2, both sexes
  Activity long runs, APM/lb Mean: 1385 Movements/Mile/LB BW
Labrador Retrievers [1]; Week 2, females
  Activity long runs, APM/lb Mean: 1616 Movements/Mile/LB BW
Labrador Retrievers [1]; Week 2, males
  Activity long runs, APM/lb Mean: 1177 Movements/Mile/LB BW
Labrador Retrievers [1]; Week 3, both sexes
  Activity long runs, APM/lb Mean: 1298 Movements/Mile/LB BW
Labrador Retrievers [1]; Week 3, females
  Activity long runs, APM/lb Mean: 1559 Movements/Mile/LB BW
Labrador Retrievers [1]; Week 3, males
  Activity long runs, APM/lb Mean: 1065 Movements/Mile/LB BW
Labrador Retrievers [1]; Week 4, both sexes
  Activity long runs, APM/lb Mean: 1334 Movements/Mile/LB BW
Labrador Retrievers [1]; Week 4, females
  Activity long runs, APM/lb Mean: 1522 Movements/Mile/LB BW
Labrador Retrievers [1]; Week 4, males
  Activity long runs, APM/lb Mean: 1093 Movements/Mile/LB BW
Labrador Retrievers [1]; Week 5, both sexes
  Activity long runs, APM/lb Mean: 1288 Movements/Mile/LB BW
Labrador Retrievers [1]; Week 5, females
  Activity long runs, APM/lb Mean: 1582 Movements/Mile/LB BW
Labrador Retrievers [1]; Week 5, males
  Activity long runs, APM/lb Mean: 1048 Movements/Mile/LB BW
Labrador Retrievers [1]; Week 6, both sexes
  Activity long runs, APM/lb Mean: 1278 Movements/Mile/LB BW
Labrador Retrievers [1]; Week 6, females
  Activity long runs, APM/lb Mean: 1472 Movements/Mile/LB BW
Labrador Retrievers [1]; Week 6, males
  Activity long runs, APM/lb Mean: 1105 Movements/Mile/LB BW
Labrador Retrievers [1]; Week 7, both sexes
  Activity long runs, APM/lb Mean: 1264 Movements/Mile/LB BW
Labrador Retrievers [1]; Week 7, females
  Activity long runs, APM/lb Mean: 1391 Movements/Mile/LB BW
Labrador Retrievers [1]; Week 7, males
  Activity long runs, APM/lb Mean: 1162 Movements/Mile/LB BW
Labrador Retrievers [1]; Week 8, both sexes
  Activity long runs, APM/lb Mean: 1241 Movements/Mile/LB BW
Labrador Retrievers [1]; Week 8, females
  Activity long runs, APM/lb Mean: 1437 Movements/Mile/LB BW
Labrador Retrievers [1]; Week 8, males
  Activity long runs, APM/lb Mean: 1081 Movements/Mile/LB BW
Labrador Retrievers [1]; Week 9, both sexes
  Activity long runs, APM/lb Mean: 1194 Movements/Mile/LB BW
Labrador Retrievers [1]; Week 9, females
  Activity long runs, APM/lb Mean: 1355 Movements/Mile/LB BW
Labrador Retrievers [1]; Week 9, males
  Activity long runs, APM/lb Mean: 1062 Movements/Mile/LB BW
Labrador Retrievers [1]; Week 10, both sexes
  Activity long runs, APM/lb Mean: 1192 Movements/Mile/LB BW
Labrador Retrievers [1]; Week 10, females
  Activity long runs, APM/lb Mean: 1385 Movements/Mile/LB BW
Labrador Retrievers [1]; Week 10, males
  Activity long runs, APM/lb Mean: 1018 Movements/Mile/LB BW
Labrador Retrievers [1]; Week 11, both sexes
  Activity long runs, APM/lb Mean: 1364 Movements/Mile/LB BW
Labrador Retrievers [1]; Week 11, females
  Activity long runs, APM/lb Mean: 1655 Movements/Mile/LB BW
Labrador Retrievers [1]; Week 11, males
  Activity long runs, APM/lb Mean: 1126 Movements/Mile/LB BW
Labrador Retrievers [1]; Week 13, both sexes
  Activity long runs, APM/lb Mean: 1116 Movements/Mile/LB BW
Labrador Retrievers [1]; Week 13, females
  Activity long runs, APM/lb Mean: 1251 Movements/Mile/LB BW
Labrador Retrievers [1]; Week 13, males
  Activity long runs, APM/lb Mean: 1006 Movements/Mile/LB BW
Labrador Retrievers [1]; both sexes
  Activity long runs, Least Sq Mean: 1317 Movements/Mile/LB BW and 1317.0647 Movements/Mile/LB BW
Labrador Retrievers [1]; females
  Activity long runs, Least Sq Mean: 1509 Movements/Mile/LB BW and 1509.2493 Movements/Mile/LB BW
Labrador Retrievers [1]; males
  Activity long runs, Least Sq Mean: 1124 Movements/Mile/LB BW and 1124.8801 Movements/Mile/LB BW
Labrador Retrievers [2]; Female
  Final Run Time: 73.7 ± 0.86 min
Labrador Retrievers [2]; Male
  Final Run Time: 76.11 ± 1.64 min
Labrador Retrievers [2]; both sexes
  Final Run Time: 74.90 min and 74.9 ± 0.94 min

Source: patent US10016382B2, “Method for decreasing skeletal muscle damage and/or oxidative stress in mammals” (LONZA INC., priority 2014, dated 2018)
